The target in one series is TrkA kinase (Homo sapiens, UniProt P04629). As to the kind of experiment: TrkA kinase assay (mobility shift assay). In kind it is biochemical. Particulars: numeric values; read-out: Trk A Kinase IC50. The method in brief:
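Ten-point compound series was preincubated 10 min at room temperature with TrkA, then FAM-peptide plus ATP added in HEPES pH 7.5/Brij-35 buffer and reacted at 28 °C before EDTA quench.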

The next series concerns the target T1, Ba/F3-TPM3-NTRK1 (Homo sapiens, UniProt P04629).
T1 construct: expressed in transfected cells; host or cells: Ba/F3; the other entry of the earlier key: TPM3 (P06753, Tropomyosin alpha-3 chain)
As to the kind of experiment: Ba/F3-TPM3-NTRK1 cells proliferation assay. Format: cell-based. Particulars: 72 h, CellTiter Glo. The method in brief: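 Ba/F3 cells stably expressing TPM3-NTRK1 or ETV6-NTRK3 fusions, 2000/well, exposed 72 h to compound at 300 to 0.05 nM final (3-fold series, 0.5% DMSO). Viability by CellTiter-Glo luminescence; IC50 by four-parameter nonlinear regression.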
(In general: ATP-based viability assays read luminescence as a measure of living cells.)

The target in the next series is T2, Ba/F3-ETV6-NTRK3 (Homo sapiens, UniProt Q16288).
T2 construct: Ba/F3 cells with TPM3-NTRK1 or ETV6-NTRK3 fusion mutation gene stably overexpressed named Ba/F3-TPM3-NTRK1 and Ba/F3-ETV6-NTRK3; fused on or other part: P41212 (Transcription factor ETV6)
The series is described as follows: Ba/F3-ETV6-NTRK3 cells proliferation assay. In kind it is cell-based. As to conditions: 72 h, CellTiter Glo. How it is done:
Example 202 Ba/F3-TPM3-NTRK1 and Ba/F3-ETV6-NTRK3 cells proliferation assay
Cell line: Ba/F3 cells with TPM3-NTRK1 or ETV6-NTRK3 fusion mutation gene stably overexpressed named Ba/F3-TPM3-NTRK1 and Ba/F3-ETV6-NTRK3.
RPMI 1640 and 10% FBS and 1% PS and 2 ug/mL puromycin.
b) Collect cell to a 15 mL centrifuged tube, centrifuge at 1000 rpm for 5 min. Discard the supernatant, count, and make the cell density at 1.49×10^4 cells/mL, then place it in a 37° C., 5% CO2 incubator.
a) The test compound (20 mM stock solution) was diluted to 60 μM with 100% DMSO as starting concentration then 3-fold serial diluted with “9+0” concentrations. in a 96-well dilution plate (Thermo, Cat. No. 249944);
b) The above compound solution was diluted 1:20 times with culture medium to prepare a 10 fold working solution;
a) Take cells in log phase growth, centrifuge at 1000 rpm for 5 min, then resuspend the cells with culture medium, then count cells;
b) Cells were seeded to 96-well cell culture plate with density at 2000 cells/well;
a) Compounds prepared at step 2 were added to cell plate with 15 μL per well, the final concentrations were 300, 100, 33.33, 11.11, 3.70, 1.23, 0.41, 0.14, 0.05 and 0 nM, and the final concentration of DMSO was 0.5%. The blank control well was a culture medium (0.5% DMSO);
c) The cells were incubated for an additional 72 h in the incubator.
a) Remove the 96-well cell culture plate and add 50 μl of CTG reagent (CellTiter Glo kit, promega, Cat #G7573).
b) Plate was shaked for 2 min and then let it cool for 30 min at room temperature.
c) The Luminescence signal value was read using a PerkinElmer reader.
Experimental Data Analysis
Data were analyzed using GraphPad Prism 6.0 software to obtain a fitted curve of compound activity.
Fit the Compound IC50 from non-linear regression equation:
Y=Bottom+(Top-Bottom)/(1+10^((Log IC50-X)×HillSlope));
X: The log of the concentration of the compound; Y: Luminescence value.

A further series has as its target NTRK1-G595R (Homo sapiens, UniProt P04629, G595R). The series is described as follows: NTRK1-G595R cell proliferation assay (Table 13). In kind it is cell-based.
Series [1] in a line: Liver microsomes metabolic stability assay, human. As to conditions: human liver microsomes 0.5 mg/mL, 37° C. Format: in vitro ADME. The method in brief:
(§1)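 Pooled human, male rat or male mouse liver microsomes (0.5 mg/mL final) incubated at 37° C with 2 μM compound, with or without 1 mM NADPH. Samples at 0-60 min quenched in cold acetonitrile and analyzed by LC-MS/MS in duplicate. t1/2 derived from ln(% remaining) vs time slope, converted to CLint (μL/min/mg).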
Background: Liver microsomes are a subcellular fraction often used to study metabolism.

Series [2] can be described thus: Liver microsomes metabolic stability assay, rat. In kind it is in vitro ADME. As to conditions: male, rat liver microsomes 0.5 mg/mL, 37° C. The method in brief: as §1
A short description of series [3]: Liver microsomes metabolic stability assay, mouse. Format: in vitro ADME. As to conditions: male, mouse liver microsomes 0.5 mg/mL, 37° C. The method in brief: as §1

These results are taken from US20210395256A1, “TYROSINE KINASE INHIBITORS, COMPOSITIONS AND METHODS THERE OF” (Betta Pharmaceuticals Co., Ltd., priority 2018, published 2021).

TrkA kinase, sequence (P04629 33-796): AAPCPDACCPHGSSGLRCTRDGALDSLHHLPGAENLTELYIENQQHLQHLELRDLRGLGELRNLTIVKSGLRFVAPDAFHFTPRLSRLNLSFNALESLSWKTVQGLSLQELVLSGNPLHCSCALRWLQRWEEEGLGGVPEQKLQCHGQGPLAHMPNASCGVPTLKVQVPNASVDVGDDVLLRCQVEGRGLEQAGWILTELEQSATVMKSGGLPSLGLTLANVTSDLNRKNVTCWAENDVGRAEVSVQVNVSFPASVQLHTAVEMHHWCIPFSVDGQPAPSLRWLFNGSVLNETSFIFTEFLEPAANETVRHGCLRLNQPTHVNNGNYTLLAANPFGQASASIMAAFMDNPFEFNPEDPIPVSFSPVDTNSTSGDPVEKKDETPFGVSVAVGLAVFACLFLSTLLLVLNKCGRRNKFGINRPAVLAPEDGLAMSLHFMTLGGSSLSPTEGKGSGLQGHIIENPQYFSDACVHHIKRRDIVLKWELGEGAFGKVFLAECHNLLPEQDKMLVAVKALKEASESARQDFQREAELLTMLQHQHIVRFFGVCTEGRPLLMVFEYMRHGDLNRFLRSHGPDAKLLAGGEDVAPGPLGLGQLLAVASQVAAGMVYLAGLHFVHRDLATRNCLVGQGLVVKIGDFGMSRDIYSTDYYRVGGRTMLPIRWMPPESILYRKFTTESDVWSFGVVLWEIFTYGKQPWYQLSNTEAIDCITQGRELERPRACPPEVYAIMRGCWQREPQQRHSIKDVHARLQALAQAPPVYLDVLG
NTRK1-G595R, sequence (P04629 33-796 G595R): as the sequence (P04629 33-796) above, with G563R counted along it
T2 sequence (Q16288 whole entry, the tested form may be a part): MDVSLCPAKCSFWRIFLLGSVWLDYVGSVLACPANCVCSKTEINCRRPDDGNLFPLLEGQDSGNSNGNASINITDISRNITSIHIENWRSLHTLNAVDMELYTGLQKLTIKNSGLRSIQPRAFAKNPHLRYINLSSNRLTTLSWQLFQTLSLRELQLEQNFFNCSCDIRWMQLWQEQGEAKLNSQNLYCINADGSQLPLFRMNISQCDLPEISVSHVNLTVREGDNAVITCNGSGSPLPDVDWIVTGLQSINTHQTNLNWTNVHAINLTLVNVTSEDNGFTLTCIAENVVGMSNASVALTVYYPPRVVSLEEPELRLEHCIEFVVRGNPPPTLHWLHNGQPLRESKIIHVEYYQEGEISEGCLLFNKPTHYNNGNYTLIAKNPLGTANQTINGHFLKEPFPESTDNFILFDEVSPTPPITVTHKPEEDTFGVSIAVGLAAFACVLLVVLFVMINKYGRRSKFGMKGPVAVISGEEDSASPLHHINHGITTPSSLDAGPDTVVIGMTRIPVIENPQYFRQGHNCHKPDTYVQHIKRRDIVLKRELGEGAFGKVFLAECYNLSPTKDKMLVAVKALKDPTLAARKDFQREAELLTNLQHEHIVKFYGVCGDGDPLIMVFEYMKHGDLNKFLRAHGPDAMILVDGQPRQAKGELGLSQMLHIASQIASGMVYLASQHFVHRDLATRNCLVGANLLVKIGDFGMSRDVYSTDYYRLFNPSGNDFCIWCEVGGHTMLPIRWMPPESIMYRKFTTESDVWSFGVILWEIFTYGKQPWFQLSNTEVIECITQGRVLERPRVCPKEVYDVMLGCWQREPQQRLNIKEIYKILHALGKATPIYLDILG
T1 sequence (P04629 510-796 limits assumed): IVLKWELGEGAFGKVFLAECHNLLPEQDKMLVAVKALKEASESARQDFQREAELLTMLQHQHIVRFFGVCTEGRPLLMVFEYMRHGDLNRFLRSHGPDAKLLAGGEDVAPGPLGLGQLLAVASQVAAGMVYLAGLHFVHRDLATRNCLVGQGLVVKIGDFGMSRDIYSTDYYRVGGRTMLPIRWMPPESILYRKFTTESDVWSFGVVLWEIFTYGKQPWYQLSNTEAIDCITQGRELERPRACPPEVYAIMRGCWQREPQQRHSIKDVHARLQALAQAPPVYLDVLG

Turning to `CS(=O)(=O)c1cc2nc(-c3cnn4ccc(N5CCC[C@@H]5c5cc(F)ccc5F)nc34)[nH]c2cc1C#N` [Compound 172, (R)-2-(5-(2-(2,5-difluorophenyl)pyrrolidin-1-yl)pyrazolo[1,5-a]pyrimidin-3-yl)-5-(methylsulfonyl)-1H-benzo[d]imidazole-6-carbonitrile], the IC50 at TrkA kinase came to 0.6 nM; at Ba/F3-TPM3-NTRK1, 2.08 nM; on Ba/F3-ETV6-NTRK3, 2.49 nM; at NTRK1-G595R, 257 nM. Besides, the microsomal CLint at 2 μM in series [1] was 41.6 µL/min/mg; in series [2], 44.8 µL/min/mg; in series [3] it was 32.4 µL/min/mg. The half-life at 2 μM in series [1] (read-out: t1/2 Human) is 33.3 min; in series [2] (read-out: t1/2 Rat), 30.9 min; in series [3] (read-out: t1/2 Mouse), 42.8 min.

Usually IC50 stands for the point on the concentration scale where inhibition reaches its midpoint. One may read the microsomal CLint as the rate of metabolic loss divided by the concentration.
